Reference: paper PMC3331894 (Journal of Immunology (Baltimore, Md. : 1950), 2012)

Assays:
CD4 T cells [1] = details: immunodominant or cryptic epitope presented by I-A^d; cited from earlier work
CD4 T cells [2] = format: cell-based, HLA-DR1 transgenic mice; details: average of at least 3 independent assays
[3] = target: purified soluble DR1 molecules (Homo sapiens, UniProt P01903+P01911, A100R/D57E/F55L/F60I/F76Y/I96L/L162R/M171V/P40L/Q125E/R42F/V115G/Y59C); format: binding

| Sequence | Immune Response (CD4 T cells [1]) | Cytokine Spots (number of CD4 T cell recruited per million) (CD4 T cells [2]) | dissociation half-time (t1/2) of DR1:peptide complexes [3] [days] | t1/2 (h) pH 5.3, dissociation of DR1:peptide complexes [3] [h] |
| --- | --- | --- | --- | --- |
| AMKRHGLDNYRGYSL [HEL[11–25]] | Cryptic |  |  |  |
| ELLVLLENERTLDFHD [HA-440] |  | 146 spots per million CD4 T cells | 14.6 | 350 |
| HNTNGVTAACSHE [HA[126–138]] | Cryptic |  |  |  |
| HNVNGVTAACSHE [HA[126–138]T128V] | Dominant |  |  |  |
| KRNLLWLTGKNGL [HA-162] |  | 163 spots per million CD4 T cells | 3.54 | 85 |
| MEERKIKVYLPRMKME [OVA[273–288]] | Dominant |  |  |  |
| SGYAADQKSTQNAINGI [HA-375] |  |  | 25 | 600 |
